# Test results published in patent US20240050342A1, “PROLIPID COMPOSITION FOR PERSONALIZED BENEFITS AND METHOD FOR USING THE SAME” (Conopco, Inc., d/b/a UNILEVER, priority 2020, published 2024).
# How the values were obtained:
# [1] = system: neonatal keratinocyte model; test: Elongation of deuterated d31-Palmitic acid with and without 12-hydroxystearic acid in neonatal keratinocyte model (LC/MS/MS); type: cell-based
# Protocol: In this experiment the elongation of deuterated d31-Palmitic acid (dC16:0) with and without PPAR activator 12-hydroxystearic was investigated in a neonatal keratinocyte model. Keratinocytes were grown in an EpiLife™ medium (with calcium, from Thermo Fisher Scientific) in six well plate formats until confluency. Confluent keratinocytes were differentiated with CaCl2 treatment. The cells in wells deplete of PPAR activator were treated with the substrate: 1 uM of d31-Palmitic acid (dC16:0) every second or third day until harvested on day 7. The remainder of the samples were treated with 1 uM of the aforementioned dC16:0 and 12 hydroxystearic acid at the concentrations shown in the tables. Samples were extracted and analyzed via liquid chromatography/tandem mass-spectrometry (LC/MS/MS) for deuterated d31-Palmitic acid (dC16:0) elongation. Precursor-to-product ion transitions, specific to deuterated elongated fatty acids derived from d31-Palmitic acid, were identified and measured.
# human skin discards = test: Sphingosine/ceramide formation from deuterated palmitic acid in ex vivo human skin model (LC/MS/MS); type: cell-based
# Protocol: In this experiment, a standard topical base composition was charged with 3% by weight deuterated d31palmitic acid and a second base was charged with 3% by weight deuterated d31palmitic acid in combination with 3% by weight 12-hydroxystearic acid. Both compositions were applied to separate human skin discards. Biopsies were taken, placed on collagen and incubated at 37° C. with about 5% carbon dioxide. Samples were harvested after 5 days, extracted, and fractionated to obtain ceramide fractions. Elongation of deuterated d31Palmitic acid (dC16:0) with and without the PPAR activator 12-hydroxystearic acid was investigated in an ex vivo human skin model. The ceramide fraction obtained was hydrolyzed to release deuterated sphingosine and analyzed via liquid chromatography/tandem mass-spectrometry (LC/MS/MS). This technique was used to identify and measure “precursor-to-product” ion transitions specific to deuterated sphingosine, and therefore, to track sphingosine formation from deuterated palmitic acid applied to skin discards. Unexpectedly, the amount of resulting deuterated sphingosine increased in the presence the PPAR activator. The numbers in units (“u”) provided depict the signal abundance of the biomolecules looked and accounted for in a sample as determined by LC/MS/MS. […]
# [2] = system: EpiDerm in vitro 3D skin equivalents of keratinocytes; test: Elongation of deuterated d23-Lauric acid in EpiDerm 3D skin equivalents (LC/MS/MS); type: cell-based, human; settings: for d23 C12:0 signal: lauric acid prior to elongation
# Protocol: In this experiment, EpiDerm in vitro 3D skin equivalents of keratinocytes (commercially available from Matek) were used as a model system to investigate bioconversions in human skin. The skin equivalents were topically treated with deuterated d23-Lauric acid (dC12:0) in propylene glycol:ethanol (70:30), one time per day for seven days with concentrations in the range of 400 ng/cm^2 to 5000 ng/cm^2. Samples were harvested, extracted and analyzed via liquid chromatography/tandem mass-spectrometry (LC/MS/MS) for deuterated d23-Lauric acid elongation. Precursor-to-product (i.e., elongation) ion transitions, specific to deuterated elongated fatty acids derived from d23 Lauric acid, were identified and measured. The first column depicts the signal for lauric acid provided to the EpiDerm prior to elongation.
# [3] = 12HSA 3 uM with 1 uM dC16:0, harvested day 7
# [4] = 12HSA 10 uM with 1 uM dC16:0, harvested day 7
# [5] = 12HSA 30 uM with 1 uM dC16:0, harvested day 7
# [6] = 12HSA 100 uM with 1 uM dC16:0, harvested day 7
# [7] = 400 ng/cm2, once per day for seven days
# [8] = 1000 ng/cm2, once per day for seven days
# [9] = 5000 ng/cm2 dC12:0, once per day for seven days
# [10] = 1 uM d31-Palmitic acid, No 12 HSA, harvested day 7
compound,measurement,setting,value
"CCCCCCC(O)CCCCCCCCCCC(=O)O (stereo not shown) [12HSA, 12-hydroxystearic acid]",dC16:0 signal,[1]; [3],486506 u
same,dC18:0 signal,[1]; [3],710249 u
same,dC20:0 signal,[1]; [3],11478 u
same,dC22:0 signal,[1]; [3],94091 u
same,dC24:0 signal,[1]; [3],294398 u
same,dC26:0 signal,[1]; [3],60180 u
same,dC16:0 signal,[1]; [4],503533 u
same,dC18:0 signal,[1]; [4],713499 u
same,dC20:0 signal,[1]; [4],13666 u
same,dC22:0 signal,[1]; [4],98634 u
same,dC24:0 signal,[1]; [4],306176 u
same,dC26:0 signal,[1]; [4],62141 u
same,dC16:0 signal,[1]; [5],921997 u
same,dC18:0 signal,[1]; [5],792317 u
same,dC20:0 signal,[1]; [5],18245 u
same,dC22:0 signal,[1]; [5],131062 u
same,dC24:0 signal,[1]; [5],470314 u
same,dC26:0 signal,[1]; [5],109818 u
same,dC16:0 signal,[1]; [6],677241 u
same,dC18:0 signal,[1]; [6],750585 u
same,dC20:0 signal,[1]; [6],75060 u
same,dC22:0 signal,[1]; [6],201806 u
same,dC24:0 signal,[1]; [6],774622 u
same,dC26:0 signal,[1]; [6],219006 u
same,effect on formation of elongated fatty acids from d31-Palmitic acid,[1]; compared to samples deplete of the activator,boosts and enhances the formation of elongated fatty acids from d31C16:0 to d31C26:0
same,amount of resulting deuterated sphingosine in the presence of the PPAR activator,human skin discards; 3% 12-hydroxystearic acid with 3% d31palmitic acid vs d31palmitic acid alone,increased
"[2H]C([2H])([2H])C([2H])([2H])C([2H])([2H])C([2H])([2H])C([2H])([2H])C([2H])([2H])C([2H])([2H])C([2H])([2H])C([2H])([2H])C([2H])([2H])C([2H])([2H])C(=O)O [dC12:0, d23-Lauric acid]",d23 C14:0 signal,[2]; [7],4670 u
same,d23 C16:0 signal,[2]; [7],46204 u
same,d23 C18:0 signal,[2]; [7],140851 u
same,d23 C20 signal,[2]; [7],20848 u
same,d23 C22:0 signal,[2]; [7],45885 u
same,d23 C24:0 signal,[2]; [7],68863 u
same,d23 C12:0 signal,[2]; [7],24559 u
same,d23 C14:0 signal,[2]; [8],7481 u
same,d23 C16:0 signal,[2]; [8],338885 u
same,d23 C18:0 signal,[2]; [8],467624 u
same,d23 C20 signal,[2]; [8],54050 u
same,d23 C22:0 signal,[2]; [8],128640 u
same,d23 C24:0 signal,[2]; [8],187974 u
same,d23 C12:0 signal,[2]; [8],51904 u
same,d23 C14:0 signal,[2]; [9],53655 u
same,d23 C16:0 signal,[2]; [9],1026969 u
same,d23 C18:0 signal,[2]; [9],1355969 u
same,d23 C20 signal,[2]; [9],227595 u
same,d23 C22:0 signal,[2]; [9],513274 u
same,d23 C24:0 signal,[2]; [9],758093 u
same,d23 C12:0 signal,[2]; [9],528578 u
same,bioconversion/elongation of dC12:0 in skin equivalents,[2]; enzymes present in the skin equivalents,"convert to dC16:0 via fatty acid synthase enzyme, followed by further elongation of dC16:0 to deuterated Lignoceric acid C24:0"
"[2H]C([2H])([2H])C([2H])([2H])C([2H])([2H])C([2H])([2H])C([2H])([2H])C([2H])([2H])C([2H])([2H])C([2H])([2H])C([2H])([2H])C([2H])([2H])C([2H])([2H])C([2H])([2H])C([2H])([2H])C([2H])([2H])C([2H])([2H])C(=O)O [deuterated palmitic acid, d31-Palmitic acid]",dC16:0 signal,[1]; [10],646987 u
same,dC18:0 signal,[1]; [10],663577 u
same,dC20:0 signal,[1]; [10],11233 u
same,dC22:0 signal,[1]; [10],90496 u
same,dC24:0 signal,[1]; [10],278426 u
same,dC26:0 signal,[1]; [10],60009 u
same,Deuterated Sphingosine signal abundance,"human skin discards; hydrolyzed ceramide fraction, composition with 3% by weight of each ingredient applied to human skin discards, harvested after 5 days, 37° C.","36,958 u"
